The record followed here is patent publication US20240108602A1, “TREATMENT OF MENTAL DISORDERS” (GH Research Ireland Limited, priority 2022, published 2024).

“Also recorded” adds a separate entry of the source.

One data set has as its system human hepatocytes. The data set can be described thus: Metabolite identification after incubation of 5-MeO-DMT with human hepatocytes. The conditions noted are these: 5-MeO-DMT free base 10 μM, up to 120 minutes. The protocol:
For incubations with cryopreserved hepatocytes, the 2 mM stock solution was diluted with Leibovitz L-15 medium to a concentration of 20 μM or 2 μM. An aliquot (250 μL) of the 20 μM and 2 μM test substance formulations was added to each hepatocyte incubation sample (250 μL), as appropriate, so that the final test substance concentration in the incubations was 10 μM or 1 μM, respectively, and incubations contained less than 1% (v/v) solvent.
Incubations were performed at ca. 37° C. in a shaking water bath (total incubation volume 0.5 mL). For 1 μM, incubations were terminated after 0, 5, 10, 20, 30, 60 and 120 minutes, by the addition of ice-cold acetonitrile (0.5 mL).
The samples were vortex mixed and centrifuged at ca 13,000 rpm for 10 minutes at room temperature. Following centrifugation, the protein-free supernatants were removed for analysis.
Blank control incubations were carried out with Leibovitz L-15 medium in place of the test substance. No cells control samples were performed with Leibovitz L-15 medium in place of hepatocytes. Aliquots of the blank control samples were taken at 120 minutes, while no cells control samples were taken at 0, 30 and 120 for 1 μM incubations and at 0 and 120 minutes for 10 μM incubations.
All 1 μM incubations were performed in duplicate, while all 10 μM incubations were performed in singlet. All samples were stored at −80° C. (nominal) prior to analysis.
Prior to sample analysis a 100 μL aliquot of each sample was evaporated to near dryness under a steady stream of nitrogen at room temperature, and subsequently reconstituted in 50 μL of mobile phase A (0.1% formic acid in water). Each sample (0, 30 and 120-minute, 10 μM) was analysed using accurate mass LC-MS to determine relative levels of parent compound at each time-point, and determine the profile of metabolites formed. Appropriate blank and control samples were also analysed. The 10 and 60-minute, 10 μM incubation samples were not analysed and were stored at −80° C. (nominal).
Data were interrogated for the presence of metabolites by comparison of retention times with the test substance reference standard and based on the accurate masses of potential metabolites using screening software (UNIFI version 1.9.4), and user defined search parameters. To confirm a suspected metabolite, the measured accurate mass of the peak detected in the sample used for structural elucidation had to be within 5 ppm of the theoretical mass in order to confirm the molecular formula.

Data set [1] is described as follows: 5-MeO-DMT, 5-MIAA and bufotenine in urine, serum and breastmilk of a lactating PPD patient, LC-MS/MS. As for the experimental part:
The second patients was lactating, and, per the clinical trial protocol, breastmilk samples were collected pre-dosing and at multiple timepoints after administration of the last dose. […] Similar analyses were carried out on patient serum and urine samples.

The subject of the next data set is human plasma protein. The data set can be described thus: Plasma binding of 5-MIAA (unbound fraction). The class given is in vitro ADME. The protocol: Binding to human plasma protein was determined. Reported are the unbound fraction (fu) for three replicates as well as the mean unbound fraction, the standard deviation and the mean % recovery (Table 8).
The mark [2] stands for this setting: 1.0 hrs after last dose (6 mg then 12 mg 5-MeO-DMT).

`CN(C)CCc1c[nH]c2ccc(O)cc12` [Bufotenine]: the “Relative Proportion of compound after incubation of 5-MeO-DMT” value in the data set with human hepatocytes came out at 5%. The Breastmilk concentration result was “BLQ (BLQ: Below limit of quantification. The lower limit of quantification is 25 pg/ml for both 5-MeO-DMT and 5-MIAA in both serum and breastmilk; it is 25 pg/ml in urine for 5-MeO-DMT and 250 pg/ml for 5-MIAA in urine.)” in data set [1] (setting [2]); “BLQ (BLQ: Below limit of quantification. The lower limit of quantification is 25 pg/ml for both 5-MeO-DMT and 5-MIAA in both serum and breastmilk; it is 25 pg/ml in urine for 5-MeO-DMT and 250 pg/ml for 5-MIAA in urine.)” in data set [1] (2.5 hrs after last dose); “BLQ (BLQ: Below limit of quantification. The lower limit of quantification is 25 pg/ml for both 5-MeO-DMT and 5-MIAA in both serum and breastmilk; it is 25 pg/ml in urine for 5-MeO-DMT and 250 pg/ml for 5-MIAA in urine.)” in data set [1] (8.5 hrs after last dose); “BLQ (BLQ: Below limit of quantification. The lower limit of quantification is 25 pg/ml for both 5-MeO-DMT and 5-MIAA in both serum and breastmilk; it is 25 pg/ml in urine for 5-MeO-DMT and 250 pg/ml for 5-MIAA in urine.)” in data set [1] (24.0 hrs after last dose); “BLQ (BLQ: Below limit of quantification. The lower limit of quantification is 25 pg/ml for both 5-MeO-DMT and 5-MIAA in both serum and breastmilk; it is 25 pg/ml in urine for 5-MeO-DMT and 250 pg/ml for 5-MIAA in urine.)” in data set [1] (120.0 hrs after last dose); “BLQ (BLQ: Below limit of quantification. The lower limit of quantification is 25 pg/ml for both 5-MeO-DMT and 5-MIAA in both serum and breastmilk; it is 25 pg/ml in urine for 5-MeO-DMT and 250 pg/ml for 5-MIAA in urine.)” in data set [1] (−24.0 hrs (pre-dosing)). In addition, the Serum concentration entry was “BLQ (BLQ: Below limit of quantification. The lower limit of quantification is 25 pg/ml for both 5-MeO-DMT and 5-MIAA in both serum and breastmilk; it is 25 pg/ml in urine for 5-MeO-DMT and 250 pg/ml for 5-MIAA in urine.)” in data set [1] (setting [2]); “BLQ (BLQ: Below limit of quantification. The lower limit of quantification is 25 pg/ml for both 5-MeO-DMT and 5-MIAA in both serum and breastmilk; it is 25 pg/ml in urine for 5-MeO-DMT and 250 pg/ml for 5-MIAA in urine.)” in data set [1] (2.5 hrs after last dose); “BLQ (BLQ: Below limit of quantification. The lower limit of quantification is 25 pg/ml for both 5-MeO-DMT and 5-MIAA in both serum and breastmilk; it is 25 pg/ml in urine for 5-MeO-DMT and 250 pg/ml for 5-MIAA in urine.)” in data set [1] (24.0 hrs after last dose); “BLQ (BLQ: Below limit of quantification. The lower limit of quantification is 25 pg/ml for both 5-MeO-DMT and 5-MIAA in both serum and breastmilk; it is 25 pg/ml in urine for 5-MeO-DMT and 250 pg/ml for 5-MIAA in urine.)” in data set [1] (120.0 hrs after last dose); “BLQ (BLQ: Below limit of quantification. The lower limit of quantification is 25 pg/ml for both 5-MeO-DMT and 5-MIAA in both serum and breastmilk; it is 25 pg/ml in urine for 5-MeO-DMT and 250 pg/ml for 5-MIAA in urine.)” in data set [1] (−24.0 hrs (pre-dosing)). Besides, the Urine concentration in data set [1] (2.5 hrs after last dose) is 32.3 pg/mL; in data set [1] (8.5 hrs after last dose), “BLQ (BLQ: Below limit of quantification. The lower limit of quantification is 25 pg/ml for both 5-MeO-DMT and 5-MIAA in both serum and breastmilk; it is 25 pg/ml in urine for 5-MeO-DMT and 250 pg/ml for 5-MIAA in urine.)”; in data set [1] (24.0 hrs after last dose), “BLQ (BLQ: Below limit of quantification. The lower limit of quantification is 25 pg/ml for both 5-MeO-DMT and 5-MIAA in both serum and breastmilk; it is 25 pg/ml in urine for 5-MeO-DMT and 250 pg/ml for 5-MIAA in urine.)”; in data set [1] (120.0 hrs after last dose), “BLQ (BLQ: Below limit of quantification. The lower limit of quantification is 25 pg/ml for both 5-MeO-DMT and 5-MIAA in both serum and breastmilk; it is 25 pg/ml in urine for 5-MeO-DMT and 250 pg/ml for 5-MIAA in urine.)”; in data set [1] (−24.0 hrs (pre-dosing)), “BLQ (BLQ: Below limit of quantification. The lower limit of quantification is 25 pg/ml for both 5-MeO-DMT and 5-MIAA in both serum and breastmilk; it is 25 pg/ml in urine for 5-MeO-DMT and 250 pg/ml for 5-MIAA in urine.)”. Besides, the “detection in serum and breastmilk” value in data set [1] (any time point) was “absence of bufotenine; also recorded: not detected”.

In the case of `CC(=O)CC(c1ccccc1)c1c(O)c2ccccc2oc1=O` (centres unmarked) [Warfarin, reference compound], in the data set on human plasma protein, the “Mean % Recovery” value is reported as 78.1%; the Mean fu is recorded as 0.0377; the “unbound fraction (fu), Replicate 1” value is 0.0418; the “unbound fraction (fu), Replicate 2” value turned out to be 0.0356. Further, in the data set with human plasma protein, the “unbound fraction (fu), Replicate 3” value is 0.0358.
